Values of other authors in publication PMC2409936, “Phase I and pharmacokinetic study of XR11576, an oral topoisomerase I and II inhibitor, administered on days 1–5 of a 3-weekly cycle in patients with advanced solid tumours” (British Journal of Cancer, 2004).

System: patients
Conditions: 1997, cited from earlier work; for diarrhoea, share of administered cycles: oral administration, ref Soepenberg et al, 2002, Natelson et al, 1996, Verschraegen et al, 1998, Creemers et al, Gerrits et al, Mani et al, De Jonge et al, 1999

Row | SMILES | diarrhoea, share of administered cycles | severe diarrhoea (prolonged oral administration (21 days), not controlled with loperamide, ref Creemers et al) [%]
1 | CC[C@@]1(O)C(=O)OCc2c1cc1n(c2=O)Cc2cc3c(N)cccc3nc2-1 [9-AC] | 24–54% | 
2 | CC[C@@]1(O)C(=O)OCc2c1cc1n(c2=O)Cc2cc3c([N+](=O)[O-])cccc3nc2-1 [9-nitrocamptothecin] | 24–54% | 
3 | CC[C@@]1(O)C(=O)OCc2c1cc1n(c2=O)Cc2cc3ccccc3nc2-1 [20-S-camptothecin] | 24–54% | 
4 | CCc1c2c(nc3ccc(OC(=O)N4CCC(N5CCCCC5)CC4)cc13)-c1cc3c(c(=O)n1C2)COC(=O)[C@]3(O)CC [irinotecan] | 24–54% | 
5 | CC[C@@]1(O)C(=O)OCc2c1cc1n(c2=O)Cc2cc3c(CN(C)C)c(O)ccc3nc2-1 [topotecan] | 24–54% | 22
